Reference: US20040077618A1, “Cycloalkylamides and their therapeutic applications” (priority 2002, published 2004)

How the values were obtained:
CD-1 mice [1] = test: Maximal electroshock procedure (protection from tonic seizures); format: in vivo; settings: Mus musculus, corneal electrodes 50 mA 0.4 second, oral pretreatment 30 minutes prior, PROBIT analysis, male CD-1 mice, read-out: ED50 (dose at which 50% of the mice were protected from tonic seizures)
Description: (§1) Adult, male, CD-1 mice (22-25 grams) were obtained from Charles River Laboratories (Portage, Mich.) and housed at Abbott Laboratories (Abbott Park) under standard lighting conditions of 12 hours on/12 hours off, with lights on at 6 a.m. Food and water were provided ad libitum and mice weighed 25-35 grams at the time of testing.
(§2) Compounds were prepared for oral administration by suspending them in a vehicle of 100 uL Tween® 80 per mL hydroxypropyl methylcellulose (2 mg/mL, Abbott Laboratories). Compound solutions were administered at a volume of 10 mL/kg, p.o.
The method used was similar to that of E. A. Swinyard, General principles: Experimental selection, quantification and evaluation of anti-convulsants, Anti-epileptic Drugs, Third Edition, R. Levey, et al., Editors. 1989, Raven Press Ltd: New York. Mice were pretreated orally with compounds of the present invention 30 minutes prior to electrical stimulation. Electrical stimulation consisted of pulsed electrical current (50 mA, 0.4 second duration, pulse width 0.5 msec, 60 pulses/sec) applied via corneal electrodes to induce seizure. The stimulation was delivered with an ECT Unit (Ugo Basile #7801). […] The percent protection from tonic seizures was calculated by dividing the number of protected mice by the total number in the group. […]

CD-1 mice [2] = test: Subcutaneous pentylenetetrazole (PTZ) seizure procedure; format: in vivo; settings: Mus musculus; PTZ 85 mg/kg subcutaneous; oral pretreatment 30 minutes prior; observed 15 minutes; linear regression; male CD-1 mice; read-out: ED50 (dose at which 50% of the mice were protected from tonic seizures)
Description: as §1, §2
The method used was similar to that of E. A. Swinyard, General principles: Experimental selection, quantification and evaluation of anti-convulsants, Anti-epileptic Drugs, Third Edition, R. Levey, et al., Editors. 1989, Raven Press Ltd: New York. During the experiment the mice were housed individually in clear polycarbonate cages for observation. […] Seizures were induced by the subcutaneous injection of pentylenetetrazole (PTZ, 85 mg/kg) just below the nape of the neck. […] A total of 20 mice were used in each group. The ED50 for the compounds were calculated using linear regression and represent the dose at which 50% of the mice were protected from tonic seizures.

SMILES: CCCC(CCC)C(=O)O [Valproate]
- ED50 (CD-1 mice [1]): 1200 µmol/kg
- ED50 (CD-1 mice [2]): 1800 µmol/kg
